Experimental data published in US20020155518A1, “Method of detecting compounds that control fungal diseases via effects on sporulation” (priority 2000, published 2002).

Key:
Aspergillus nidulans [1] = test: High-throughput screen for antisporulant activity, direct application with a replicator; assay type: cell-based; settings: direct application to the medium using a replicator; 2 days at 37° C.
Excerpt: For high-throughput screens, 245mm square bioassay dishes were poured and the medium containing the spore inoculum was allowed to solidify prior to application of test samples. Test samples, representing a broad spectrum of diverse chemical structures, were applied to the surface of the agar medium either by hand, using a replicator, or by robotic application. Each screen included a positive control treatment (e.g., 5 ∝g of one of the active benzophenones described elsewhere herein) that provided a positive response. Plates were incubated for 2 days at 37° C. Positives were initially identified by the presence of a discolored zone around the test sample. The positives were confirmed by retest followed by observation under a low power microscope (×20 magnification).
7000 compounds with diverse structures have been tested using the such a highthroughput screen. The compounds were tested by direct application to the medium using a replicator.

Aspergillus nidulans [2] = test: Sporulation assay, paper disc diffusion on PDA seeded with spores; assay type: cell-based, Aspergillus nidulans strain 003 (ATCC 36321)
[3] = tested on: Apple Scab (Venturia inaequalis); test: Protectant foliar spray test against apple scab; assay type: in vivo; settings: apple seedlings, foliar spray before inoculation; vs untreated inoculated controls; note: key: '+++' =high control; '++' =moderate control; '+' =low control; '0'=no control
[4] = tested on: Leptosphaeria (Septoria) nodorum; test: Protectant foliar spray test against wheat L. nodorum blotch; assay type: in vivo; settings: wheat, foliar spray before inoculation; vs untreated inoculated controls; note: key: '+++' =high control; '++' =moderate control; '+' =low control; '0'=no control
[5] = tested on: Wheat Powdery Mildew (Blumeria [Erysiphe] graminis f.sp. tritici); settings: in vivo; note: key: '+++' =high control; '++' =moderate control; '+' =low control; '0'=no control
[6] = tested on: Rice Blast (Magnaporthe grisea); assay type: in vivo; settings: foliar spray before inoculation, vs untreated inoculated controls

Row | Structure (SMILES) | anti-sporulation activity (Aspergillus nidulans [1]) | Active (Aspergillus nidulans [2]) | Inactive (Aspergillus nidulans [2]) | Moderately active (Aspergillus nidulans [2]) | Level of Plant Disease Control, Apple Scab [3] | Level of Plant Disease Control, Wheat L. nodorum [4] | Level of Plant Disease Control, Wheat Powdery Mildew [5] | Level of Plant Disease Control, Rice Blast [6]
1 | CC(C)(C)CC(C)(C)c1ccc(C(=O)O)cc1 [A, 4-(1,1,3,3-tetramethylbutyl)benzoic acid] | tested positive | – | – | – | – | – | – | –
2 | CC1=C(C(=O)Nc2ccccc2)SCCO1 [Carboxin] | – | No | Yes | No | – | – | – | –
3 | C[C@@H]([C@H](N)C(=O)N[C@H](C(=O)O)[C@H]1O[C@@H](n2ccc(=O)[nH]c2=O)[C@H](O)[C@@H]1O)[C@H](O)c1ccc(O)cn1 [Nikkomycin] | – | No | Yes | No | – | – | – | –
4 | CCCC(C)Oc1cc(C)c(C(=O)c2c(Cl)cccc2Cl)cc1OC (stereo not drawn) [U, (2,6-dichlorophenyl)[5-methoxy-2-methyl-4-(1-methylbutoxy)phenyl]methanone] | – | – | – | – | 0 | +++ | ++ | ++
5 | COc1cc(C)c(C(=O)c2c(Cl)cccc2Cl)c(OCc2ccccc2F)c1OC [V, (2,6-dichlorophenyl)[2-[(2-fluorophenyl)methoxy]-3,4-dimethoxy-6-methylphenyl]methanone] | – | – | – | – | 0 | 0 | +++ | ++
6 | CCC(=O)Oc1c(OC)c(OC)cc(C)c1C(=O)c1c(Cl)cccc1Cl [W, (2,6-dichlorophenyl)[3,4-dimethoxy-6-methyl-2-(1-oxopropoxy)phenyl]methanone] | – | – | – | – | +++ | 0 | +++ | +++
7 | COc1cc(C)c(C(=O)c2c(C)ccc3ccccc23)c(OCc2ccccc2F)c1OC [X, [3,4-dimethoxy-6-methyl-2-[(2-fluorophenyl)methoxy]phenyl](2-methyl-1-naphthalenyl)methanone] | – | – | – | – | 0 | 0 | +++ | 0
8 | CCCOc1c(OC)cc(C)c(C(=O)c2c(OC)ccc(Br)c2C)c1OCc1ccccc1 [Y, (3-bromo-6-methoxy-2-methylphenyl)[4-methoxy-6-methyl-2-(phenylmethoxy)-3-propoxyphenyl]methanone] | – | – | – | – | 0 | 0 | +++ | 0
